Assay results reported in patent publication US5858410A, “Pharmaceutical nanosuspensions for medicament administration as systems with increased saturation solubility and rate of solution” (Medac Gesellschaft Fur Klinische Spezialpraparate, priority 1994, dated 1999).

Assay: Particle size of suspensions by PCS / laser diffractometer (LD)
Assay type: physicochemical
Source text: Wet grinding has been employed as a further grinding technique (Sandell, E., Grundriss der Galenischen Pharmazie [Principles of galenical pharmacy], Govi-Verlag GmbH, Frankfurt am Main, 1962), for example using a Premier Mill (Sandell, loc. cit.) or a ball or pearl mill (Hagers Handbuch der pharmazeutischen Praxis [Hagers handbook of pharmaceutical practice], Springer-Verlag, Berlin, 1925). Although a main population of particles in the nanometer range results when a pearl mill is used, a significant proportion of particles larger than 1 μm is still present. […] RNXP 22 was ground (Dispermat) in a pearl mill without addition of surfactant (FIG. 2: A) and with addition of 3% Tween 80 (FIG. 2: A+surfactant). The 50% diameter of the surfactant-free sample is already approx. 2 μm, i.e. 50% of the particles are >2 μm. Some of these micrometer particles can be attributed to agglomeration. As described in the literature (Sandell, loc. cit.; P. H. List, Arzneiformenlehre [Drug forms], Wissenschaftliche Verlagsgesellschaft mbH Stuttgart, 1976; Sucker, H., Speiser, P., Fuchs, P., Pharmazeutische Technologie [Pharmaceutical technology], George Thieme Verlag Stuttgart, 1978; Munzel, K., Buchi, J., Schultz, O.-E., Galenisches Praktikum [Practical galenics], Wissenschaftliche Verlagsgesellschaft mbH Stuttgart, 1959), aggregation in suspensions can be prevented by addition of surfactants (Tween 80, Pluronic F 68) or generally stabilizers (e.g. polyvinylpyrrolidone--PVP, Pluronic F 68). […] As a rule, this is also recommended by manufacturers of mills (e.g. Dyno-Mill, A. Bachoffen AG Maschinenfabrik). Surfactant-stabilized microparticles have also been patented (U.S. Pat. No. 5,246,707), it also being possible for these additionally to comprise iron particles within the microparticles in order to allow location of the particles via magnetic fields.
Another preparation method which has been known for a long time is "via humida paratum", precipitation by pouring a solution of the active compound into a non-solvent (Hagers Handbuch der pharmazeutischen Praxis [Hagers handbook of pharmaceutical practice], Springer-Verlag, Berlin, 1925). By pouring into the non-solvent, the Ostwald Mie range is rapidly passed through and a very fine precipitate separates out. The particles which have precipitated out likewise have a significant proportion in the micrometer range. […] The drug was dissolved in ethanol (3%, 20 ml) and the solution poured into 100 ml of an aqueous surfactant solution (1.2% Pluronic F68). The end of the measuring range is 80 μm, and a large fraction between approx. 18 μm to 80 μm was detected.
The powdered drug (ground in an air jet, particles up to more than 25 μm) was rubbed in a grinding dish with a concentrated surfactant solution for wetting, and the remaining aqua dest. was then added, while stirring. Alternatively, the drug powder can also be introduced into a surfactant solution by stirring. […] The average particle diameter of the parent suspensions (=suspension with 0 cycles), measured with the laser diffractometer, and of the resulting nanosuspensions by PCS (PI=polydispersity index):
Preparation of the suspension and subsequent homogenization as in example 1. […] To monitor the decrease in the particles also in the size range from 1 μm to several μm as a function of the number of cycles, the samples were analysed with the LD. The results were evaluated by plotting the 99% diameter against the number of cycles (FIG. 6). […]

[1] = ground in an air jet, LD (FIG. 1)

Q: Which “50% LD diameter” value (ground in a pearl mill, surfactant-free sample (FIG. 2: A)) does the source give for C[C@@H]1CN(c2nc(N(CCO)CC(C)(C)O)c3nc(-c4ccccc4)c(N4C[C@@H](C)O[C@@H](C)C4)nc3n2)C[C@H](C)O1 [RMKP 22, 4-[N-(2-hydroxy-2-methylpropyl)-ethanolamine]-2.7-bis(cis-2.6-dimethylmorpholin-4-yl)-6-phenyl-pteridine] here?
A: approx. 2 μm

Q: And the “particles >1 μm” value [1]?
A: 92%

Q: And the “particles in the range below 1,000 nm” value [1]?
A: 8%

Q: And the “particles smaller than 25 μm” value [1]?
A: 100%

Q: And the “effect of surfactant on diameters of the volume distribution” value (pearl mill, addition of 3% Tween 80 (FIG. 2: A+surfactant))?
A: only a slight reduction in the diameters of the volume distribution
